BindingDB's records for doi:10.1016/j.bmcl.2017.04.068 (Beijing Institute of Pharmacology & Toxicology, 2017)

Experiment: Inhibition of rilpivirine-resistant HIV1 NL4-3 reverse transcriptase E138K mutant infected in human TZM-b1 cells after 2 days by bright Glo-luciferase reporter gene assay
With `Cc1cc(/C=C/C#N)cc(C)c1Oc1cc(Nc2ccc(C#N)cc2)c(N)cc1C(=O)NCCCl` the EC50 was 8.5 nM.
In the case of `Cc1cc(/C=C/C#N)cc(C)c1Oc1cc(Nc2ccc(C#N)cc2)c(N)cc1C(=O)OCCC#N`, the EC50 is reported as 2.9 nM.
`Cc1cc(/C=C/C#N)cc(C)c1Oc1cc(Nc2ccc(C#N)cc2)c(N)cc1C(=O)NCCCO` showed an EC50 of 23 nM.
In the case of `Cc1cc(/C=C/C#N)cc(C)c1Oc1cc(Nc2ccc(C#N)cc2)c(N)cc1C(=O)N1CC1`, the EC50 is reported as 8.7 nM.
`COCCOC(=O)c1cc(N)c(Nc2ccc(C#N)cc2)cc1Oc1c(C)cc(/C=C/C#N)cc1C` gave an EC50 of 4.6 nM.
